Laboratory results taken from ChEMBL document CHEMBL1201862, “PubChem BioAssay data set” (2004).
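Assay format: 96-well plates, 48-hour exposure. GI50: concentration for 50% inhibition of growth.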 Active and inactive are the calls of the source. No stated cut-off is given here; in the data, active = GI50 up to about 1.1 µM and inactive = higher.

Experiments:
Assay in all cases: NCI anticancer screen, dose series, 48 h
SF-268 = test system: SF-268
EKVX = test system: EKVX
DMS-114 = test system: DMS-114
NCI-H522 = test system: NCI-H522
DLD-1 = test system: DLD-1
KM12 = test system: KM12
HOP-62 = test system: HOP-62
COLO 205 = test system: COLO 205
HOP-18 = test system: HOP-18
IGROV-1 = test system: IGROV-1
LOX IMVI = test system: LOX IMVI
HOP-92 = test system: HOP-92
OVCAR-5 = test system: OVCAR-5
SK-MEL-5 = test system: SK-MEL-5
U-251 = test system: U-251
NCI-H23 = test system: NCI-H23
SK-OV-3 = test system: SK-OV-3
DMS-273 = test system: DMS-273
K562 = test system: K562
HT-29 = test system: HT-29
SN12C = test system: SN12C
SNB-19 = test system: SNB-19
UACC-62 = test system: UACC-62
SK-MEL-28 = test system: SK-MEL-28
HCT-15 = test system: HCT-15
SNB-78 = test system: SNB-78
RPMI-8226 = test system: RPMI-8226
HL-60 = test system: HL-60
SW-620 = test system: SW-620
SF-295 = test system: SF-295
CCRF-CEM = test system: CCRF-CEM
SNB-75 = test system: SNB-75
ACHN = test system: ACHN
UO-31 = test system: UO-31
KM-20L2 = test system: KM-20L2
Malme-3M = test system: Malme-3M
A498 = test system: A498
UACC-257 = test system: UACC-257
NCI-H460 = test system: NCI-H460
786-0 = test system: 786-0
MOLT-4 = test system: MOLT-4
OVCAR-8 = test system: OVCAR-8
OVCAR-3 = test system: OVCAR-3
TK-10 = test system: TK-10
SF-539 = test system: SF-539
RXF 393 = test system: RXF 393
CAKI-1 = test system: CAKI-1
NCI-H226 = test system: NCI-H226
SK-MEL-2 = test system: SK-MEL-2
A549 = test system: A549
HCC 2998 = test system: HCC 2998
M19-MEL = test system: M19-MEL
HCT-116 = test system: HCT-116
OVCAR-4 = test system: OVCAR-4
SR = test system: SR
LXFL 529 = test system: LXFL 529
M14 = test system: M14

CC1OC(OC2C(OC(=O)[C@]34CCC(C)(C)CC3C3=CCC5[C@@]6(C)C[C@H](O)[C@H](OC7OC(COC8OC(CO)C(O)C(O)C8O)C(O)C(O)C7O)[C@@](C)(C(=O)O)C6CC[C@@]5(C)C3(C)CC4)OCC(O)C2O)C(O)C(O)C1OC1OCC(O)C(O)C1O (stereo partly drawn)
GI50 (SF-268): > 100 µM (inactive) | GI50 (EKVX): > 100 µM (inactive) | GI50 (DMS-114): > 100 µM (inactive) | GI50 (NCI-H522): > 100 µM (inactive) | GI50 (DLD-1): > 100 µM (inactive) | GI50 (KM12): > 100 µM (inactive) | GI50 (HOP-62): > 100 µM (inactive) | GI50 (COLO 205): > 100 µM (inactive) | GI50 (HOP-18): > 100 µM (inactive) | GI50 (IGROV-1): > 100 µM (inactive) | GI50 (LOX IMVI): > 100 µM (inactive) | GI50 (HOP-92): > 100 µM (inactive) | GI50 (OVCAR-5): > 100 µM (inactive) | GI50 (SK-MEL-5): > 100 µM (inactive) | GI50 (U-251): > 100 µM (inactive) | GI50 (NCI-H23): > 100 µM (inactive) | GI50 (SK-OV-3): > 100 µM (inactive) | GI50 (DMS-273): > 100 µM (inactive) | GI50 (K562): > 100 µM (inactive) | GI50 (HT-29): > 100 µM (inactive) | GI50 (SN12C): > 100 µM (inactive) | GI50 (SNB-19): > 100 µM (inactive) | GI50 (UACC-62): > 100 µM (inactive) | GI50 (SK-MEL-28): > 100 µM (inactive) | GI50 (HCT-15): > 100 µM | GI50 (SNB-78): > 100 µM (inactive) | GI50 (RPMI-8226): > 100 µM (inactive) | GI50 (HL-60): > 100 µM (inactive) | GI50 (SW-620): > 100 µM (inactive) | GI50 (SF-295): > 100 µM (inactive) | GI50 (CCRF-CEM): > 100 µM (inactive) | GI50 (SNB-75): > 100 µM (inactive) | GI50 (ACHN): > 100 µM (inactive) | GI50 (UO-31): > 100 µM (inactive) | GI50 (KM-20L2): > 100 µM (inactive) | GI50 (Malme-3M): > 100 µM (inactive) | GI50 (A498): > 100 µM (inactive) | GI50 (UACC-257): > 100 µM (inactive) | GI50 (NCI-H460): > 100 µM (inactive) | GI50 (786-0): > 100 µM (inactive) | GI50 (MOLT-4): > 100 µM (inactive) | GI50 (OVCAR-8): > 100 µM (inactive) | GI50 (OVCAR-3): > 100 µM (inactive) | GI50 (TK-10): > 100 µM (inactive) | GI50 (SF-539): > 100 µM (inactive) | GI50 (RXF 393): > 100 µM (inactive) | GI50 (CAKI-1): > 100 µM (inactive) | GI50 (NCI-H226): > 100 µM (inactive) | GI50 (SK-MEL-2): > 100 µM (inactive) | GI50 (A549): > 100 µM (inactive) | GI50 (HCC 2998): > 100 µM (inactive) | GI50 (M19-MEL): > 100 µM (inactive)

CC(=O)OC1CC2C(C)(C)C(=O)C=C[C@]2(C)C2CCC3(C)C(c4ccoc4)C(=O)C4OC43[C@]12C (stereo partly drawn)
GI50 (HCT-116): 13 µM (inactive) | GI50 (OVCAR-4): 15.1 µM (inactive) | GI50 (SF-268): 21.7 µM (inactive) | GI50 (EKVX): 40.5 µM (inactive) | GI50 (DMS-114): 16.1 µM (inactive) | GI50 (SR): 11.5 µM (inactive) | GI50 (NCI-H522): 12.9 µM (inactive) | GI50 (DLD-1): 16.5 µM (inactive) | GI50 (KM12): 15.1 µM (inactive) | GI50 (HOP-62): 27.8 µM (inactive) | GI50 (COLO 205): 18.1 µM (inactive) | GI50 (HOP-18): 99.3 µM (inactive) | GI50 (IGROV-1): 21 µM (inactive) | GI50 (LOX IMVI): 13.2 µM (inactive) | GI50 (HOP-92): 15.8 µM (inactive) | GI50 (OVCAR-5): 29.4 µM (inactive) | GI50 (SK-MEL-5): 15.7 µM (inactive) | GI50 (U-251): 18.8 µM (inactive) | GI50 (NCI-H23): 15.3 µM (inactive) | GI50 (SK-OV-3): 13.2 µM (inactive) | GI50 (DMS-273): 31.6 µM (inactive) | GI50 (K562): 13.1 µM (inactive) | GI50 (HT-29): 16.3 µM (inactive) | GI50 (SN12C): 15.2 µM (inactive) | GI50 (SNB-19): 31.3 µM (inactive) | GI50 (UACC-62): 14.2 µM (inactive) | GI50 (SK-MEL-28): 16.9 µM (inactive) | GI50 (HCT-15): 14.4 µM | GI50 (SNB-78): 51.1 µM (inactive) | GI50 (RPMI-8226): 2.77 µM (inactive) | GI50 (HL-60): 12.4 µM (inactive) | GI50 (SW-620): 19.5 µM (inactive) | GI50 (SF-295): 16.9 µM (inactive) | GI50 (CCRF-CEM): 20.8 µM (inactive) | GI50 (SNB-75): 22.4 µM (inactive) | GI50 (ACHN): 24.2 µM (inactive) | GI50 (UO-31): 20.2 µM (inactive) | GI50 (KM-20L2): 17.2 µM (inactive) | GI50 (Malme-3M): 15.2 µM (inactive) | GI50 (A498): 17.6 µM (inactive) | GI50 (UACC-257): 15.7 µM (inactive) | GI50 (NCI-H460): 17.1 µM (inactive) | GI50 (786-0): 25.9 µM (inactive) | GI50 (MOLT-4): 13.4 µM (inactive) | GI50 (OVCAR-8): 20.8 µM (inactive) | GI50 (OVCAR-3): 18.3 µM (inactive) | GI50 (TK-10): 36.6 µM (inactive) | GI50 (SF-539): 20.1 µM (inactive) | GI50 (LXFL 529): 22.6 µM (inactive) | GI50 (CAKI-1): 28.5 µM (inactive) | GI50 (NCI-H226): 16.2 µM (inactive) | GI50 (M14): 17.3 µM (inactive) | GI50 (SK-MEL-2): 16 µM (inactive) | GI50 (A549): 16.7 µM (inactive) | GI50 (HCC 2998): 16.7 µM (inactive) | GI50 (M19-MEL): 16 µM (inactive)
